Measured values from ChEMBL document CHEMBL1201862, “PubChem BioAssay data set” (2004).
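These data come from cells grown in 96-well plates and exposed to compound for 48 hours at five concentrations. Here, GI50 denotes the concentration required for 50% inhibition of growth.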 The source made the active and inactive calls. Cut-off read from the data, not from the text of the source: active = GI50 up to about 1.1 µM and inactive = higher.

Assays:
Assay in all cases: inhibition of tumour cell growth, NCI panel, 48 h
[1] = tested on: OVCAR-8
[2] = tested on: ACHN
[3] = tested on: A549
[4] = tested on: U-251
[5] = tested on: RXF 393
[6] = tested on: SF-268
[7] = tested on: MCF7
[8] = tested on: TK-10
[9] = tested on: HOP-62
[10] = tested on: COLO 205
[11] = tested on: LOX IMVI
[12] = tested on: MOLT-4
[13] = tested on: SN12C
[14] = tested on: IGROV-1
[15] = tested on: NCI-H226
[16] = tested on: NCI-H23
[17] = tested on: OVCAR-5
[18] = tested on: SK-MEL-5
[19] = tested on: MDA-N
[20] = tested on: Hs-578T

Measured: GI50

CC(C)(C)[C@H]1NC(=O)CN1C(=O)OCc1ccccc1
inactive: [1] > 100 µM | [2] 82.2 µM | [3] > 100 µM | [4] 82 µM | [5] > 100 µM | [6] 8.07 µM | [7] > 100 µM | [8] > 100 µM | [9] > 100 µM | [10] > 100 µM | [11] 43.6 µM | [12] > 100 µM | [13] > 100 µM | [14] > 100 µM | [15] > 100 µM | [16] > 100 µM | [17] > 100 µM | [18] 85.9 µM

Clc1ccc(/N=C/c2cc3cc(Br)ccc3nc2Cl)cc1
inactive: [1] 28.1 µM | [5] > 50 µM | [6] 17 µM | [19] 11.2 µM | [10] > 50 µM | [11] 6.18 µM | [12] 13.5 µM | [13] > 50 µM | [14] 17.8 µM | [15] > 50 µM | [16] > 50 µM | [17] > 50 µM | [18] 6.59 µM

O=c1oc(-c2ccc(O)c(O)c2)cc2cccc(O)c12 [THUNBERGINOL A]
inactive: [1] 36.6 µM | [2] 21.4 µM | [3] 35.4 µM | [5] 18.9 µM | [6] 19.8 µM | [7] 9.57 µM | [8] 4.9 µM | [9] 15.2 µM | [10] 10.5 µM | [20] 21.2 µM | [12] 3.42 µM | [13] 14.4 µM | [14] 6.19 µM | [16] 16.1 µM | [17] 22 µM | [18] 9.4 µM

CCC(CC)n1c(C)nc2c1C(=O)c1ccccc1C2=O
inactive: [1] 40.5 µM | [2] 41.4 µM | [3] 35.3 µM | [4] 36.5 µM | [5] 35.2 µM | [6] 49.2 µM | [8] 35.9 µM | [9] 33.4 µM | [10] 26.9 µM | [11] 19.5 µM | [12] 41.2 µM | [13] 46.3 µM | [14] 71.9 µM | [15] 72.8 µM | [16] 21.5 µM | [18] 15.7 µM

COC(=O)C(C(=O)C(=O)Nc1nc2ccc([N+](=O)[O-])cc2s1)c1nc2ccc(Cl)cc2nc1O (stereo not drawn)
inactive: [1] > 100 µM | [2] > 100 µM | [3] > 100 µM | [4] 94.8 µM | [5] > 100 µM | [6] > 100 µM | [8] > 100 µM | [9] > 100 µM | [10] > 100 µM | [11] > 100 µM | [12] > 100 µM | [13] > 100 µM | [14] > 100 µM | [15] > 100 µM | [16] > 100 µM | [17] > 100 µM | [18] > 100 µM

CCCCCCCCCCCCn1[nH]c(C)c(C(=S)SCCCCCCCC)c1=O
inactive: [1] 30.7 µM | [2] 37.6 µM | [3] 69.5 µM | [4] 45 µM | [5] 37.3 µM | [6] > 72.6 µM | [8] 64.6 µM | [9] 50.1 µM | [10] 37.2 µM | [11] 48.8 µM | [12] 14 µM | [13] 86.3 µM | [14] > 91.6 µM | [15] 23.4 µM | [16] 73.3 µM | [17] > 100 µM | [18] 49 µM

COC(=O)/C=C\COCC1C2CCC(=O)C21 (stereo not drawn)
inactive: [1] > 25 µM | [2] 11.6 µM | [3] > 25 µM | [4] > 25 µM | [5] 9.62 µM | [6] 4.68 µM | [7] 10.3 µM | [8] 13 µM | [9] > 25 µM | [19] > 25 µM | [10] 14 µM | [11] 14.5 µM | [12] 6.07 µM | [13] > 25 µM | [14] 10.5 µM | [15] 18.5 µM | [16] > 25 µM | [17] > 25 µM | [18] 22.9 µM

N#C/C(=C\c1ccc2ccccc2c1)c1ccccc1
inactive: [1] 32.4 µM | [2] 18.7 µM | [4] 23 µM | [5] 38.8 µM | [6] 39.6 µM | [8] 34.3 µM | [9] 26.6 µM | [10] 17.8 µM | [11] 53.3 µM | [12] 39.5 µM | [13] 39.8 µM | [14] 14.9 µM | [15] 53.2 µM | [16] > 100 µM | [17] 98.2 µM | [18] 16.7 µM

CC(=O)OCC1OC(n2c3c(c(-c4ccc(Cl)cc4)c(C#N)c2=S)CCCC3)C(OC(C)=O)C(OC(C)=O)C1OC(C)=O (stereo not drawn)
inactive: [1] > 100 µM | [2] 43.8 µM | [3] 36.1 µM | [4] 88.9 µM | [5] 23.5 µM | [6] 96.6 µM | [7] > 100 µM | [8] 44.9 µM | [9] 97.3 µM | [19] 42.8 µM | [10] 35.2 µM | [11] 44.9 µM | [12] 25.1 µM | [13] 88.5 µM | [14] 45.9 µM | [15] 36.6 µM | [16] 46.5 µM | [17] > 100 µM | [18] 16.7 µM

CCNC1CC(C(C)(C)NCC)CC=C1C (stereo not drawn)
inactive: [1] > 100 µM | [3] > 100 µM | [4] > 100 µM | [6] > 100 µM | [7] > 100 µM | [8] > 100 µM | [9] > 100 µM | [19] > 100 µM | [10] > 100 µM | [11] > 100 µM | [12] > 100 µM | [13] > 100 µM | [14] > 100 µM | [16] > 100 µM | [17] > 100 µM | [18] > 100 µM

Cc1ccc(/N=N/c2ccc(N(CCC#N)CCC#N)cc2C)c(Br)c1
inactive: [1] 49.3 µM | [2] 15 µM | [3] 21.5 µM | [4] 19.1 µM | [5] 9.27 µM | [6] 21.1 µM | [8] 16.7 µM | [9] 16.6 µM | [10] 38.1 µM | [11] 3.33 µM | [12] 7.5 µM | [13] 19.4 µM | [14] 37.4 µM | [15] 17.2 µM | [16] 21.3 µM | [17] 56 µM | [18] 16.3 µM

CC1=NC(C)(C)N(O)C1(C)C
inactive: [1] > 100 µM | [2] > 100 µM | [3] > 100 µM | [4] > 100 µM | [5] > 100 µM | [6] > 100 µM | [7] > 100 µM | [8] > 100 µM | [9] > 100 µM | [19] > 100 µM | [10] > 100 µM | [11] > 100 µM | [12] > 100 µM | [13] > 100 µM | [14] > 100 µM | [15] > 100 µM | [16] > 100 µM | [17] > 100 µM | [18] > 100 µM
